Measurements from ChEMBL document CHEMBL5030541, “Non-alkylator anti-glioblastoma agents induced cell cycle G2/M arrest and apoptosis: Design, in silico physicochemical and SAR studies of 2-aminoquinoline-3-carboxamides” (Bioorg Med Chem Lett, 2021).
Active and inactive are the calls of the source. The calls are words filed in the database; no cut-off is given here.

Tests used:
MKN-45 [1] = assay: Cytotoxicity against human MKN-45 cells assessed as inhibition of cell growth measured after 48 hrs by MTT assay; type: functional, cell-based; conditions: MKN-45, 48 h
U-87 MG [2] = assay: Cytotoxicity against human U-87 MG cells assessed as inhibition of cell growth measured after 48 hrs by MTT assay; type: functional, cell-based, U-87MG ATCC
HCT-116 [3] = assay: Cytotoxicity against human HCT-116 cells assessed as inhibition of cell growth measured after 48 hrs by MTT assay; type: functional, cell-based; conditions: HCT-116, 48 h
A549 [4] = assay: Cytotoxicity against human A549 cells assessed as inhibition of cell growth measured after 48 hrs by MTT assay; type: functional, cell-based; conditions: A549, 48 h
NCM460 = assay: Cytotoxicity against human NCM460 cells assessed as inhibition of cell growth measured after 48 hrs by MTT assay; type: cell-based; conditions: NCM460, 48 h
U-87 MG [5] = assay: Effect on cell morphology in human U-87 MG cells assessed as appearance of round cells; type: functional, cell-based; conditions: U-87MG ATCC
CCD-841CoN = assay: Cytotoxicity against human CCD-841CoN cells assessed as inhibition of cell growth measured after 48 hrs by MTT assay; type: cell-based
U-87 MG [6] = assay: Induction of apoptosis in human U-87 MG cells assessed as late apoptotic cells at 44 uM measured after 48 hrs by annexin V-FITC/PI staining based flow cytometry analysis (Rvb= 2.11%); type: functional, U-87MG ATCC
U-87 MG [7] = assay: Induction of apoptosis in human U-87 MG cells assessed as dead cells at 44 uM measured after 48 hrs by Annexin V-FITC/PI staining based flow cytometry analysis (Rvb= 0.098%); type: functional, U-87MG ATCC
A 172 = assay: Cytotoxicity against human A 172 cells assessed as inhibition of cell growth measured after 48 hrs by MTT assay; type: functional, cell-based; conditions: A 172, 48 h
U-118-MG [8] = assay: Cytotoxicity against human U-118-MG cells assessed as inhibition of cell growth measured after 48 hrs by MTT assay; type: functional, cell-based
U-87 MG [9] = assay: Induction of cell cycle arrest in human U-87 MG cells assessed as accumulation of cells at G2/M phase at 0.5 times IC50 measured after 48 hrs by PI staining based flow cytometry analysis (Rvb= 5.39%); type: functional, U-87MG ATCC
U-87 MG [10] = assay: Induction of apoptosis in human U-87 MG cells assessed as early apoptotic cells at 44 uM measured after 48 hrs by annexin V-FITC/PI staining based flow cytometry analysis (Rvb= 6.21%); type: functional, U-87MG ATCC
U-251 = assay: Cytotoxicity against human U-251 cells assessed as inhibition of cell growth measured after 48 hrs by MTT assay; type: functional, cell-based; conditions: U-251, 48 h
L02 = assay: Cytotoxicity against human L02 cells assessed as inhibition of cell growth measured after 48 hrs by MTT assay; type: cell-based; conditions: L02, 48 h
U-87 MG [11] = assay: Cytotoxicity against human U-87 MG cells assessed as inhibition of cell growth at 100 uM measured after 48 hrs by MTT assay; type: functional, cell-based; conditions: U-87MG ATCC
U-87 MG [12] = assay: Effect on cell morphology in human U-87 MG cells assessed as lose of adherence; type: functional, cell-based; conditions: U-87MG ATCC
U-118-MG [13] = assay: Effect on cell morphology in human U-118-MG cells assessed as appearance of round cells; type: functional, cell-based
U-118-MG [14] = assay: Effect on cell morphology in human U-118-MG cells assessed as lose of adherence; type: functional, cell-based
U-87 MG [15] = assay: Induction of apoptosis in human U-87 MG cells assessed as live cells at 44 uM measured after 48 hrs by annexin V-FITC/PI staining based flow cytometry analysis (Rvb= 91.6%); type: functional, U-87MG ATCC
HCT-116 [16] = assay: Cytotoxicity against human HCT-116 cells assessed as inhibition of cell growth at 200 uM measured after 48 hrs by MTT assay; type: functional, cell-based
MKN-45 [17] = assay: Cytotoxicity against human MKN-45 cells assessed as inhibition of cell growth at 200 uM measured after 48 hrs by MTT assay; type: functional, cell-based
A549 [18] = assay: Cytotoxicity against human A549 cells assessed as inhibition of cell growth at 200 uM measured after 48 hrs by MTT assay; type: functional, cell-based
U-87 MG [19] = assay: Cytotoxicity against human U-87 MG cells assessed as inhibition of cell growth at 200 uM measured after 48 hrs by MTT assay; type: functional, cell-based; conditions: U-87MG ATCC

Nc1nc2cc3c(cc2cc1C(=O)NCCc1c[nH]c2ccccc12)OCO3
IC50 (MKN-45 [1]): 76.9 µM | IC50 (U-87 MG [2]): 45.5 µM | IC50 (HCT-116 [3]): > 200 µM | IC50 (A549 [4]): > 200 µM

Nc1nc2cc3c(cc2cc1C(=O)NCc1ccccc1)OCO3
IC50 (MKN-45 [1]): > 200 µM | IC50 (U-87 MG [2]): 75.6 µM | IC50 (HCT-116 [3]): > 200 µM | IC50 (A549 [4]): > 200 µM

Nc1nc2cc3c(cc2cc1C(=O)NCCc1c[nH]c2ccccc12)OCCO3
IC50 (U-87 MG [2]): 44.4 µM

Nc1nc2cc3c(cc2cc1C(=O)NCC1CC1)OCO3
IC50 (MKN-45 [1]): > 200 µM | IC50 (U-87 MG [2]): 77.2 µM | IC50 (HCT-116 [3]): > 200 µM | IC50 (A549 [4]): > 200 µM

COc1cc2cc(C(=O)NCCc3c[nH]c4ccccc34)c(N)nc2cc1OC
IC50 (NCM460): 222 µM | Activity (U-87 MG [5]): Active | IC50 (CCD-841CoN): 135 µM | Activity (U-87 MG [6]): 43% | IC50 (MKN-45 [1]): 72.3 µM | Activity (U-87 MG [7]): 0.45% | IC50 (A 172): 23.7 µM | IC50 (U-87 MG [2]): 43.6 µM | IC50 (U-118-MG [8]): 29.2 µM | Activity (U-87 MG [9]): 23.14% | Activity (U-87 MG [10]): 50.9% | IC50 (U-251): 121 µM | IC50 (L02): 118 µM | Activity (U-87 MG [11]): Active | Activity (U-87 MG [12]): Active | Activity (U-118-MG [13]): Active | Activity (U-118-MG [14]): Active | Activity (U-87 MG [15]): 5.65%

c1cc2cc3c(cc2nc1C1CC1)OCO3
IC50 (U-87 MG [2]): > 200 µM | Activity (U-87 MG [11]): inactive

C#CCNC(=O)c1cc2cc3c(cc2nc1N)OCO3
IC50 (MKN-45 [1]): > 200 µM | IC50 (U-87 MG [2]): > 200 µM | IC50 (HCT-116 [3]): > 200 µM | IC50 (A549 [4]): 92 µM

Nc1nc2cc3c(cc2cc1C(=O)NCCN1C(=O)c2cccc4cccc(c24)C1=O)OCO3
IC50 (U-87 MG [2]): > 200 µM | IC50 (A549 [4]): 73.4 µM

COc1cc2nc(N)c(C(=O)NCCc3c[nH]c4ccccc34)cc2c(Cl)c1OC
IC50 (MKN-45 [1]): 75.1 µM | IC50 (U-87 MG [2]): 60.8 µM

Nc1nc2cc3c(cc2cc1C(=O)NCc1cccnc1)OCO3
Activity (HCT-116 [16]): inactive | Activity (MKN-45 [17]): inactive | IC50 (MKN-45 [1]): > 200 µM | IC50 (U-87 MG [2]): 109 µM | IC50 (HCT-116 [3]): 163 µM | Activity (A549 [18]): inactive | Activity (U-87 MG [19]): inactive | IC50 (A549 [4]): > 200 µM

Cn1nnc2c(C(N)=O)ncn2c1=O [TEMOZOLOMIDE]
IC50 (U-87 MG [2]): > 200 µM

Nc1nc2cc(Cl)ccc2cc1C(=O)NCc1cccnc1
IC50 (MKN-45 [1]): > 200 µM | IC50 (U-87 MG [2]): 125 µM | IC50 (HCT-116 [3]): > 200 µM | IC50 (A549 [4]): > 200 µM

Nc1nc2ncccc2cc1C(=O)NCc1cccnc1
IC50 (MKN-45 [1]): > 200 µM | IC50 (U-87 MG [2]): 303 µM | IC50 (HCT-116 [3]): > 200 µM | IC50 (A549 [4]): > 200 µM
